Data taken from patent publication US5750754A, “Heterocyclic compounds” (Zeneca Limited, priority 1993, dated 1998).
Read-outs that look alike come from different tables or passages of the source.

Experiments:
[1] = target: T1, human, citrated, platelet-rich plasma (Homo sapiens, UniProt P05106+P08514); test: Test (a): inhibition of ADP stimulated platelet aggregation (Born); type: cell-based; conditions: ADP induced aggregation of human platelet-rich plasma
T1 construct: aggregating human, citrated, platelet-rich plasma; endogenous in cells; host or cells: human platelets in citrated platelet-rich plasma
T1 sequence (P08514 32-887 limits assumed): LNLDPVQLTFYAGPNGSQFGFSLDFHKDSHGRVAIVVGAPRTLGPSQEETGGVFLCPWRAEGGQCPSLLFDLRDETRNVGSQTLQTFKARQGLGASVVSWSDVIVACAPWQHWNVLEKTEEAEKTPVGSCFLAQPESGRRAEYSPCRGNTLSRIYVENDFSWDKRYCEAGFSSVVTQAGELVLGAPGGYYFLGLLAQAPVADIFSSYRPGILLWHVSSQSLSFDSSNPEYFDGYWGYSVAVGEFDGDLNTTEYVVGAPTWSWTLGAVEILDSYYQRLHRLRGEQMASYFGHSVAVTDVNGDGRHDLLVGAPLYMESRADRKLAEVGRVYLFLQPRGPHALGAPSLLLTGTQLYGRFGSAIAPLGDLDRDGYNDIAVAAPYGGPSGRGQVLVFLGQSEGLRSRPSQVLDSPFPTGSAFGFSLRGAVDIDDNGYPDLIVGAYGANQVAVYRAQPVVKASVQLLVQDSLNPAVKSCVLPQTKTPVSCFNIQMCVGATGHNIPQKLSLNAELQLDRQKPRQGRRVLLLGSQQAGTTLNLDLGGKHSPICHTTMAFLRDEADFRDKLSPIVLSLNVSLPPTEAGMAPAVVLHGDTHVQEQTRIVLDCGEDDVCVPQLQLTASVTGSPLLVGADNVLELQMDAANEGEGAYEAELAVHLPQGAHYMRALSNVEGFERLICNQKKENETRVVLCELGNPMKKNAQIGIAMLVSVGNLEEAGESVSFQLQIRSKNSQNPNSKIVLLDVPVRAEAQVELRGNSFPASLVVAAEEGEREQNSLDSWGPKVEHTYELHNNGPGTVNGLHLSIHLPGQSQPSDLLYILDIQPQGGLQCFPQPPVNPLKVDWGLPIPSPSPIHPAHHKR
T1 sequence (P08514 891-1039 limits assumed): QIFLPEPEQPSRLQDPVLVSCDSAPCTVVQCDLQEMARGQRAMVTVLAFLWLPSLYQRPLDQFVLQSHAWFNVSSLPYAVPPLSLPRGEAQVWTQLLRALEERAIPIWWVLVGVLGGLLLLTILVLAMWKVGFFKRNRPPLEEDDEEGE
T1 sequence (P05106 27-788): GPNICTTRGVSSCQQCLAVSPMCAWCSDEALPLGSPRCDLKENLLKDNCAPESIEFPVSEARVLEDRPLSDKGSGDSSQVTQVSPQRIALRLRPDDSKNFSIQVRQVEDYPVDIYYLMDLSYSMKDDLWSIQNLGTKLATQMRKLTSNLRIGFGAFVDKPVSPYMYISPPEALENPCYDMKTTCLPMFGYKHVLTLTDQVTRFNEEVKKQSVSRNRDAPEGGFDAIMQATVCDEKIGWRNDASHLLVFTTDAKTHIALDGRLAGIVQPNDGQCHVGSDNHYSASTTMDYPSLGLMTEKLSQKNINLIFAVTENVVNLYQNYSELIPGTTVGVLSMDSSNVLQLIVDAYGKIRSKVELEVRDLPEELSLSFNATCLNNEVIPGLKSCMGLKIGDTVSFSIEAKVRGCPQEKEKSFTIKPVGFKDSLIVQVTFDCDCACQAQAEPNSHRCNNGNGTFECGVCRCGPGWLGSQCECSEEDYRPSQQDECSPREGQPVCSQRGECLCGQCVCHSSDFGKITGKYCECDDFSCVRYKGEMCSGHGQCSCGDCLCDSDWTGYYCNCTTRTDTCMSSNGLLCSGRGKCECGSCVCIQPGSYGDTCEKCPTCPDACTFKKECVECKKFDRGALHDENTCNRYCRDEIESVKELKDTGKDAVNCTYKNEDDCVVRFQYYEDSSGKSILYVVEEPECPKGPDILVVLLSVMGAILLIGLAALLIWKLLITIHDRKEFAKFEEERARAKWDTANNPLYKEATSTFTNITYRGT
Method in brief: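 ADP added to human citrated platelet-rich plasma to build aggregation dose-response curves, repeated with increasing test compound (generally 10-^5 M to 10-^10 M). pA2 derived from the 50% response value for ADP with vs. without compound, averaged over several concentrations.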

[2] = target: T2, purified human platelet fibrinogen receptor (GPIIb/IIIa) (Homo sapiens, UniProt P05106+P08514); test: Test (b): GPIIb/IIIa ELISA, inhibition of biotinylated fibrinogen binding; conditions: purified human platelet GPIIb/IIIa, ELISA
T2 construct: is isolated from human platelet lysates; from tissue
T2 sequence (P08514 32-887 limits assumed): as the sequence (P08514 32-887 limits assumed) above
T2 sequence (P08514 891-1039 limits assumed): as the sequence (P08514 891-1039 limits assumed) above
T2 sequence (P05106 27-788): as the sequence (P05106 27-788) above
Method in brief: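 GPIIb/IIIa affinity-purified from human platelet lysates was coated on plates, blocked, then incubated 2 h at 30 °C with biotinylated fibrinogen ([…]) plus compound. Bound fibrinogen detected via streptavidin/biotinylated HRP and TMB, OD at 650 nm; pIC50 for 50% binding inhibition.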

[3] = read-out: Test (a): pA2 value indicating potency of platelet aggregation inhibition (converted)
[4] = read-out: Test (b): pIC50 (-log(IC50)), 50% inhibition of biotinylated fibrinogen binding to GPIIb/IIIa (converted)
[5] = Test (a): pA2 value indicating potency of platelet aggregation inhibition
[6] = Test (b): pIC50 (-log(IC50)), 50% inhibition of biotinylated fibrinogen binding to GPIIb/IIIa

Row | SMILES | Kb [1, 3] [nM] | IC50 [2, 4] [nM] | Kb [1, 5] [nM] | IC50 [2, 6] [nM]
1 | O=C(O)CCNC(=O)c1ccc(N2CCN(c3ccncc3)CC2)cc1 [Example 57, 3-[4-[4-(4-Pyridyl)piperazin-1-yl]]benzamidopropionic acid] | 25.1 | 25.1 | – | –
2 | CCn1cc(C(=O)O)c(=O)c2ccc(N3CCN(c4ccncc4)CC3)cc21 [Example 65, Ethyl-4-[4-(4-pyridyl)piperazin-1-yl]-4-quinolon-3-ylcarboxylic acid] | 6310 | 2510 | – | –
3 | COC(=O)CCNC(=O)c1ccc(N2CCN(c3ccncc3)CC2)nc1 [Example 69, Methyl 3-[6-[4-(4-pyridyl)piperazin-1-yl]pyrid-3-ylcarboxamido]propionate] | 12600 | 3980 | – | –
4 | O=C(O)CCNC(=O)c1ccc(N2CCN(c3ccncc3)CC2)nc1 [Example 70, 3-[6-[4-(4-Pyridyl)piperazin-1-yl]pyrid-3-ylcarboxamido]propionic acid] | 79.4 | 15.8 | – | –
5 | O=C(O)COc1ccc2nccc(N3CCN(c4ccncc4)CC3)c2c1 [Example 71, 4-[[4-(4-Pyridyl)piperazin-1-yl]quinolin-6-yl]oxyacetic acid] | 12600 | 39800 | – | –
6 | O=C(O)CCNC(=O)c1cccc(N2CCN(c3ccncc3)CC2)n1 [Example 74, 3-[6-[4-(4-Pyridyl)piperazin-1-yl]pyrid-2-yl]carboxamidopropionic acid] | 10000 | 2000 | – | –
7 | O=C(O)C=Cc1ccc(CN2CCN(c3ccncc3)CC2)cc1 [Example 77, 4-[[4-(4-Pyridyl)piperazin-1-yl]methylene]cinnamic acid] | 7940 | 501 | – | –
8 | COC(=O)COc1ccc(C(=O)C(C)N2CCN(c3ccncc3)CC2)cc1OCC(=O)OC (stereo not shown) [Example 78] | 158 | 251 | – | –
9 | CC(C(=O)c1ccc(OCC(=O)O)c(OCC(=O)O)c1)N1CCN(c2ccncc2)CC1 (stereo not shown) [Example 79, 4-[2-[(4-Pyridyl)piperazin-1-yl]-2-methyl]acetyl-1,2-diphenoxydiacetic acid] | – | – | 12.6 | 3.16
10 | COC(=O)COc1ccc2c(c1)CCC(N1CCN(c3ccncc3)CC1)C2=O (stereo not shown) [Example 80, Methyl 2-[4-(4-pyridyl)piperazin-1-yl]tetralone-6-oxyacetate] | – | – | 251 | 398
11 | CCCCS(=O)(=O)N[C@@H](Cc1ccc(OCCCCC2CCN(c3ccncc3)CC2)cc1)C(=O)OC [Example 83, Methyl 2-S-(butylsulphonylamino)-3-[4-[4-[1-(4-pyridyl)piperidin-4-yl]-butoxy]phenyl]propionate] | 39800 | 2000 | – | –
12 | CCCCS(=O)(=O)N[C@@H](Cc1ccc(OCCCCC2CCN(c3ccncc3)CC2)cc1)C(=O)O [Example 84, 2-S-(n-Butylsulphonylamino)-3-[4-[4-[1-(4-pyridyl)piperidin-4-yl]butoxy]phenyl]propionic acid] | 63.1 | 20 | – | –

The next lines start with results.

Row | Kb [1, 3] [nM] | IC50 [2, 4] [nM] | SMILES | Kb [1, 5] [nM] | IC50 [2, 6] [nM]
13 | 31600 | 15800 | O=C(O)CC(NC(=O)c1cccc(CN2CCN(c3ccncc3)CC2)c1)c1ccccc1 (stereo not shown) [Example 55, 3-[3-[4-(4-Pyridyl)piperazin-1-ylmethyl]]benzamido-3-phenylpropionic acid] | – | –
14 | 3160 | 15800 | COC(=O)CCNC(=O)c1ccc(N2CCN(c3ccncc3)CC2)cc1 [Example 56, Methyl 3-[4-[4-(4-pyridyl)piperazin-1-yl]]benzaminopropionate] | – | –
15 | 3160 | 39800 | COC(=O)CC(NC(=O)c1ccc(N2CCN(c3ccncc3)CC2)cc1)c1ccccc1 (stereo not shown) [Example 58, Methyl 3-[4-[4-(4-pyridyl)piperazin-1-yl]benzamido]-3-phenylpropionate] | – | –
16 | 63.1 | 31.6 | O=C(O)CC(NC(=O)c1ccc(N2CCN(c3ccncc3)CC2)cc1)c1ccccc1 (stereo not shown) [Example 59, 3-[4-[4-(4-Pyridy)piperazin-1-yl]benzamido]-3-phenylpropionic acid] | – | –
17 | 10000 | 15800 | COC(=O)CC(C)NC(=O)c1ccc(N2CCN(c3ccncc3)CC2)cc1 (stereo not shown) [Example 60, Methyl 3-[4-[4-(4-pyridyl)piperazin-1-yl]benzamido]butyrate] | – | –
18 | 31.6 | 200 | COC(=O)COc1ccc(C(=O)CN2CCN(c3ccncc3)CC2=O)cc1 [Example 61, Methyl 4-[2-[4-(4-pyridyl)piperazin-2-one-1-yl]acetyl]phenoxyacetate] | – | –
19 | 2.51 to 12.6 | 7.94 | O=C(O)COc1ccc(C(=O)CN2CCN(c3ccncc3)CC2=O)cc1 [Example 62, 4-[2-[4-(4-Pyridyl)piperazin-2-one-1-yl]acetyl]phenoxyacetic acid] | – | –
20 | 126 | 316 | COC(=O)COc1ccc(NC(=O)N2CCN(c3ccncc3)CC2)cc1 [Example 63, Methyl 4-[[4-(4-pyridyl)piperazin-1-yl]carboxamido]phenoxy acetate] | – | –
21 | 31.6 | 20 | O=C(O)COc1ccc(NC(=O)N2CCN(c3ccncc3)CC2)cc1 [Example 64, 4-[[4-(4-Pyridyl)piperazin-1-yl]carboxamido]phenoxyacetic acid] | – | –
22 | 501 | 63.1 | O=C(O)COc1ccc2nc(N3CCN(c4ccncc4)CC3)ccc2c1 [Example 73, 2-[4-(4-Pyridyl)piperazin-1-yl]quinolin-6-yloxyacetic acid] | – | –
23 | 31600 | 3980 | CN(Cc1ccc(-c2ccc(OCC(=O)O)cc2)cc1)c1ccncc1 [Example 75, 4-[4'-[N-Methyl-N-(4-pyridyl)]aminomethyl]biphenyloxyacetic acid] | – | –
24 | 31600 | 1260 | O=C(O)COc1ccc2c(CN3CCN(c4ccncc4)CC3)cccc2c1 [Example 76, 5-[[4-(4-Pyridyl)piperazin-1-yl]methylene]naphth-2-yloxyacetic acid] | – | –
25 | 15800 | 200 | CCCCS(=O)(=O)N[C@@H](Cc1ccc(OCCCC2CCN(c3ccncc3)CC2)cc1)C(=O)OC [Example 81, Methyl 2-S-(n-butylsulphonylamino)-3-[4-[3-[1-(4-pyridyl)piperidin-4-yl]propoxy]phenyl]propionate] | – | –
26 | 501 | 12.6 | CCCCS(=O)(=O)N[C@@H](Cc1ccc(OCCCC2CCN(c3ccncc3)CC2)cc1)C(=O)O [Example 82, 2-S-(n-Butylsulphonylamino)-3-[4-[3-[1-(4-pyridyl)piperidin-4-yl]propoxy]phenyl]propionic acid] | – | –
27 | 1580 | 251 | COC(=O)[C@H](Cc1ccc(OCCC2CCN(c3ccncc3)CC2)cc1)NS(C)(=O)=O [Example 85, Methyl 2-S-(methsulphonylamino)-3-[4-[2-[1-(4-pyridyl)piperidin-4-yl]ethoxy]phenyl]propionate] | – | –
28 | 3980 | 200 | COC(=O)[C@H](Cc1ccc(OCCC2CCN(c3ccncc3)CC2)cc1)NS(=O)(=O)Cc1ccccc1 [Example 86, Methyl 2-S-(benzylsulphonylamino)-3-[4-[2-[1-(4-pyridyl)piperidin-4-yl]ethoxy]phenyl]propionate] | – | –
29 | 2510 | 63.1 | COC(=O)[C@H](Cc1ccc(OCCC2CCN(c3ccncc3)CC2)cc1)NS(=O)(=O)c1ccc(C)cc1 [Example 87, Methyl 2-S-(4-methylphenylsulphonylamino)-3-[4-[2-[1-(4-pyridyl)piperidin-4-yl]ethoxy]phenyl]propionate] | – | –
